From paper PMC9822073, “Synthesis, Cytotoxic Evaluation, and Structure-Activity Relationship of Substituted Quinazolinones as Cyclin-Dependent Kinase 9 Inhibitors” (Molecules, 2022)
Where two headings read alike, the source gives them in different places.

Tests used:
CDK9/cyclin T = CDK9/cyclin T (Homo sapiens, UniProt P50750); assay: In vitro luminescent CDK9 kinase assay (Kinase-Glo MAX); format: biochemical; conditions: for reduction in CDK9 inhibitory activity: compared with compound 25
Method: In vitro luminescent CDK9 kinase assay was performed as reported previously using Kinase- Glo® MAX as a detection reagent. Briefly, 5 μL of each inhibitor in concentrations ranging from 10 μM to 1 nM (10 μM, 1 μM, 0.1 μM, 0.01 μM, and 0.001 μM) and 10 μL of enzyme substrate were mixed in 20 μL of kinase assay buffer (obtained from BPS Bioscience, catalog #79334) at room temperature. Then 20 μL of 5 ng/μL CDK9/cyclin T was added to the mixture to initiate the reaction. After 45 min, 50 μL of Kinase-Glo® Max reagent was added, and the resulting mixture was incubated for 15 min at room temperature. The chemiluminescence was measured microplate reader, and IC50 values were calculated using Prism 8.0 (GraphPad Software, San Diego, CA, USA).

MCF-7 cell line = assay: MTT metabolic (antiproliferative) assay; conditions: read-out: Cytotoxicity IC50, MCF-7, 48 h, mean ± SD
Method: The antiproliferative activity of the twenty-seven compounds was evaluated by 3-(4,5-dimethylthiazol-2-yl)-2,5-diphenyltetrazolium bromide (MTT) metabolic assay against the MCF-7 cell line, according to a previous method [26].

CDK9 = tested on: CDK9; design: method as in PMID 33142413, PMID 24150998; conditions: Figure 2; cited from earlier work
[1] = CDK9 IC50 as used for LE and LLE, read-out: IC50 (CDK9, Table 4)
[2] = negative log of the CDK9 IC50, read-out: pIC50 (converted)

Chain of CDK9/cyclin T (P50750 whole entry): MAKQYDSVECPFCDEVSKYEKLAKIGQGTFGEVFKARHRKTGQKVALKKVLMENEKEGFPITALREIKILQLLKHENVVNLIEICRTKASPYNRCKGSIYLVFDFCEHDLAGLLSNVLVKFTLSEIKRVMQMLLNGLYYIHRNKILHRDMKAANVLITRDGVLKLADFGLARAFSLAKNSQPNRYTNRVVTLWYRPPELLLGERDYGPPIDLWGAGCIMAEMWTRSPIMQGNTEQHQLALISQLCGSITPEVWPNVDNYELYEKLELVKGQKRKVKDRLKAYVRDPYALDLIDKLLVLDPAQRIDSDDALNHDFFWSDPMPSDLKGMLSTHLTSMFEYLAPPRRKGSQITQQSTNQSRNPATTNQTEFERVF
Chain of CDK9/cyclin T (O60563 whole entry partner): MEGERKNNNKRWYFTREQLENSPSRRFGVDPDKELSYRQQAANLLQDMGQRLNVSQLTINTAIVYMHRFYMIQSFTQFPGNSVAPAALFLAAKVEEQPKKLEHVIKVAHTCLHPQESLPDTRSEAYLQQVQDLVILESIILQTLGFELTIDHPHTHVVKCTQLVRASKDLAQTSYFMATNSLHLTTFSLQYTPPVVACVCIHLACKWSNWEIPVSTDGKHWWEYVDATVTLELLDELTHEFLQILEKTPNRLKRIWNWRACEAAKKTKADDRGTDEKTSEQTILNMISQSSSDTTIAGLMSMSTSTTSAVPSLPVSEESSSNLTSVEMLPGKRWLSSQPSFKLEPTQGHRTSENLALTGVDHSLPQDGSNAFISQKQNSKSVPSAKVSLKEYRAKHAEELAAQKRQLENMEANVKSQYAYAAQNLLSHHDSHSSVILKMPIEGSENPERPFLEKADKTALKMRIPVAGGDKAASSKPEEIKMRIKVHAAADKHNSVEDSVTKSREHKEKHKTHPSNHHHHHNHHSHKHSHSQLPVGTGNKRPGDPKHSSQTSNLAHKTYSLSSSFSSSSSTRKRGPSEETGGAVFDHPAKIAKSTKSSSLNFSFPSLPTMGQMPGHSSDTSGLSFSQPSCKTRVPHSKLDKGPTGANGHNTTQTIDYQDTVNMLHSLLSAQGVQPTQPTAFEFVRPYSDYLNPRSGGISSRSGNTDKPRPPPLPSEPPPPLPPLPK

| Compound | IC50 (CDK9/cyclin T; [1]) | IC50 (CDK9/cyclin T; mean ± SD, read-out: CDK9 IC50) | IC50 (MCF-7 cell line) | other results |
| --- | --- | --- | --- | --- |
| NS(=O)(=O)c1ccc(CCn2c(=S)[nH]c3ccccc3c2=O)cc1 [Compound 1, 2-Mercapto-3-(4-sulfamoylphenethyl)quinazolin-4-one] | 644 nM | 644 ± 7 nM | 650 ± 150 nM |  |
| NC(=O)CSc1nc2ccccc2c(=O)n1CCc1ccc(S(N)(=O)=O)cc1 [Compound 2] | 454 nM | 454 ± 6 nM | 2310 ± 390 nM |  |
| NS(=O)(=O)c1ccc(CCn2c(SCC(=O)Nc3ccccc3)nc3ccccc3c2=O)cc1 [Compound 3] | 421 nM | 421 ± 6 nM | 820 ± 80 nM |  |
| Cc1ccc(NC(=O)CSc2nc3ccccc3c(=O)n2CCc2ccc(S(N)(=O)=O)cc2)cc1 [Compound 4] | 788 nM | 788 ± 12 nM | 160 ± 20 nM |  |
| CC(=O)c1ccc(NC(=O)CSc2nc3ccccc3c(=O)n2CCc2ccc(S(N)(=O)=O)cc2)cc1 [Compound 5] | 829 nM | 829 ± 14 nM | 180 ± 90 nM |  |
| COc1ccc(NC(=O)CSc2nc3ccccc3c(=O)n2CCc2ccc(S(N)(=O)=O)cc2)cc1 [Compound 6] | 463 nM | 463 ± 7 nM | 4650 ± 1380 nM |  |
| COc1cc(NC(=O)CSc2nc3ccccc3c(=O)n2CCc2ccc(S(N)(=O)=O)cc2)cc(OC)c1OC [Compound 8] | 501 nM | 501 ± 9 nM | 2480 ± 320 nM |  |
| NS(=O)(=O)c1ccc(CCn2c(SCC(=O)Nc3ccc(F)cc3)nc3ccccc3c2=O)cc1 [Compound 11] | 336 nM | 336 ± 5 nM | 3860 ± 780 nM |  |
| COc1ccc(CNC(=O)CSc2nc3ccccc3c(=O)n2CCc2ccc(S(N)(=O)=O)cc2)cc1 [Compound 13] | 334 nM | 334 ± 6 nM | 840 ± 150 nM |  |
| CC(Sc1nc2ccccc2c(=O)n1CCc1ccc(S(N)(=O)=O)cc1)C(=O)Nc1ccccc1 (centres unmarked) [Compound 15] | 444 nM | 444 ± 7 nM | 670 ± 180 nM |  |
| CC(Sc1nc2ccccc2c(=O)n1CCc1ccc(S(N)(=O)=O)cc1)C(=O)Nc1ccc(Cl)cc1 (centres unmarked) [Compound 16] |  | 350 ± 6 nM | 730 ± 10 nM | IC50 (CDK9/cyclin T; [2]): 347 nM |
| O=c1[nH]cnc2ccc(I)cc12 [Compound 17] | 639 nM | 639 ± 4 nM | 3880 ± 120 nM |  |
| O=c1[nH]c(-c2ccc(Cl)cc2)nc2ccc([N+](=O)[O-])cc12 [Compound 20] | 434 nM | 434 ± 3 nM | 6070 ± 190 nM | reduction in potency against CDK9 (CDK9/cyclin T; compound 20 versus compound 19): 1 fold |
| Cc1ccc2nc(-c3cccc(Br)c3)oc(=O)c2c1 [Compound 24, 2-(3-Bromophenyl)-6-methyl-4H-benzo[d][1,3]oxazin-4-one] | 486 nM | 486 ± 4 nM | 10400 ± 330 nM | reduction in CDK9 inhibitory activity (CDK9/cyclin T): 3 fold |
| Cc1ccc2nc(-c3cccc(Br)c3)n(N)c(=O)c2c1 [Compound 27, 3-Amino-2-(3-bromophenyl)-6-methylquinazolin-4(3H)-one] | 835 nM | 835 ± 6 nM | 28700 ± 920 nM | reduction in CDK9 inhibitory activity (CDK9/cyclin T): approximately 6 fold |
| CN1CC[C@H](c2c(O)cc(O)c3c(=O)cc(-c4ccccc4Cl)oc23)[C@H](O)C1 [Flavopiridol, flavopiridol, reference compound] |  |  | 40 ± 1 nM |  |
| NS(=O)(=O)c1ccc(CCn2c(SCc3ccccc3)nc3ccccc3c2=O)cc1 [VI] |  |  |  | IC50 (CDK9): 67000 nM |

The next lines start with results.

| IC50 (CDK9/cyclin T; [1]) | IC50 (CDK9/cyclin T; mean ± SD, read-out: CDK9 IC50) | Compound | IC50 (MCF-7 cell line) | other results |
| --- | --- | --- | --- | --- |
| 115 nM | 115 ± 2 nM | CCOc1ccc(NC(=O)CSc2nc3ccccc3c(=O)n2CCc2ccc(S(N)(=O)=O)cc2)cc1 [Compound 7] | 1570 ± 40 nM | increase of CDK9 inhibitory activity (CDK9/cyclin T; compared to the hit compound 1): around 6 fold |
| 131 nM | 131 ± 2 nM | NS(=O)(=O)c1ccc(CCn2c(SCC(=O)Nc3ccc(Br)cc3)nc3ccccc3c2=O)cc1 [Compound 9] | 1720 ± 260 nM |  |
| 193 nM | 193 ± 3 nM | NS(=O)(=O)c1ccc(CCn2c(SCC(=O)Nc3ccc(Cl)cc3)nc3ccccc3c2=O)cc1 [Compound 10] | 1040 ± 70 nM |  |
| 218 nM | 218 ± 4 nM | NS(=O)(=O)c1ccc(CCn2c(SCC(=O)NCc3ccc(F)cc3)nc3ccccc3c2=O)cc1 [Compound 12] | 690 ± 230 nM |  |
| 229 nM | 229 ± 4 nM | COc1ccc(CNC(=O)CSc2nc3ccccc3c(=O)n2CCc2ccc(S(N)(=O)=O)cc2)cc1OC [Compound 14] | 590 ± 100 nM |  |
| 296 nM | 296 ± 3 nM | O=c1[nH]c(-c2cccs2)nc2ccc(I)cc12 [Compound 18] | 21400 ± 680 nM |  |
| 282 nM | 282 ± 3 nM | Cc1ccc(-c2nc3ccc(Cl)cc3c(=O)[nH]2)cc1 [Compound 19] | 12300 ± 390 nM |  |
|  | 210 ± 3 nM | Cc1ccc(NC(=O)c2cccc(Br)c2)c(C(=O)O)c1 [Compound 23, 2-(3-Bromobenzamido)-5-methylbenzoic acid] | 11500 ± 370 nM | IC50 (CDK9/cyclin T; [2]): 209 nM; melting point: 155 to 157 °C |
| 142 nM | 142 ± 1 nM | Cc1ccc2nc(-c3cccc(Br)c3)[nH]c(=O)c2c1 [Compound 25, 2-(3-Bromophenyl)-6-methylquinazolin-4(3H)-one] | 16800 ± 540 nM |  |
| 289 nM | 289 ± 2 nM | Cc1ccc2nc(-c3cccc(Br)c3)[nH]c(=S)c2c1 [Compound 26, 2-(3-Bromophenyl)-6-methylquinazoline-4(3H)-thione] | 5210 ± 170 nM | reduction in CDK9 inhibitory activity (CDK9/cyclin T): 2 fold |
|  | 210 ± 2 nM | Cc1ccc2nc(-c3cccc(Br)c3)n(O)c(=O)c2c1 [Compound 28, 2-(3-Bromophenyl)-3-hydroxy-6-methylquinazolin-4(3H)-one] | 6270 ± 200 nM | IC50 (CDK9/cyclin T; [2]): 209 nM |
